According to US9090586B2, “Heterocyclic compound” (TAKEDA PHARMACEUTICAL COMPANY LIMITED, priority 2010, dated 2015):

What was measured:
human PDE10A enzyme = target: T1, human PDE10A enzyme (Homo sapiens, UniProt Q9Y233); assay: PDE10A enzyme activity inhibition test (SPA); assay type: biochemical; conditions: for inhibition at 0.1 µM: 100 nM compound, read-out: Inhibition rate (%) (100 nM); for IC50: [3H]cGMP substrate
T1 construct: Human PDE10A full-length gene was transfected into Sf9 or COS-7 cells; His-tag; made in house; host or cells: Sf9 or COS-7 cells
Experimental: Human PDE10A full-length gene was transfected into Sf9 or COS-7 cells, the cells were disrupted and centrifuged, and human PDE10A enzyme was obtained from the residue. The enzyme extracted from Sf9 cells was partially purified using His-tag affinity column. The enzyme was stored at −70° C. until use. The PDE activity was measured using an SPA (Scintillation Proximity Assay) (GE Healthcare). To measure the inhibitory activity of the compound, 10 μL of serially diluted compound was reacted with 20 μL of PDE enzyme in an assay buffer (50 mM HEPES-NaOH, 8.3 mM MgCl2, 1.7 mM EGTA, 0.1% BSA (pH 7.4)) […] at room temperature. The final concentration of DMSO in the reaction mixture was 1 percent. The compounds were evaluated in duplicate in 96-well half-area plates (Corning). To start the reaction, 10 μL of substrate [^3H] cGMP (25 and 50 nM; GE Healthcare and PerkinElmer, respectively) was added to 40 μL. After 60 min of reaction at room temperature, yttrium SPA beads containing zinc sulphate were added (6 mg/mL, 20 μL) to terminate the PDE reaction. After standing still for 1 hr, the measurement was performed using a scintillation counter (PerkinElmer) and the PDE10A enzyme activity inhibition rate was calculated. The inhibition rate was calculated based on the control containing enzyme and DMSO as 0% and the control without enzyme as 100%.

T1 sequence (Q9Y233 267-1055): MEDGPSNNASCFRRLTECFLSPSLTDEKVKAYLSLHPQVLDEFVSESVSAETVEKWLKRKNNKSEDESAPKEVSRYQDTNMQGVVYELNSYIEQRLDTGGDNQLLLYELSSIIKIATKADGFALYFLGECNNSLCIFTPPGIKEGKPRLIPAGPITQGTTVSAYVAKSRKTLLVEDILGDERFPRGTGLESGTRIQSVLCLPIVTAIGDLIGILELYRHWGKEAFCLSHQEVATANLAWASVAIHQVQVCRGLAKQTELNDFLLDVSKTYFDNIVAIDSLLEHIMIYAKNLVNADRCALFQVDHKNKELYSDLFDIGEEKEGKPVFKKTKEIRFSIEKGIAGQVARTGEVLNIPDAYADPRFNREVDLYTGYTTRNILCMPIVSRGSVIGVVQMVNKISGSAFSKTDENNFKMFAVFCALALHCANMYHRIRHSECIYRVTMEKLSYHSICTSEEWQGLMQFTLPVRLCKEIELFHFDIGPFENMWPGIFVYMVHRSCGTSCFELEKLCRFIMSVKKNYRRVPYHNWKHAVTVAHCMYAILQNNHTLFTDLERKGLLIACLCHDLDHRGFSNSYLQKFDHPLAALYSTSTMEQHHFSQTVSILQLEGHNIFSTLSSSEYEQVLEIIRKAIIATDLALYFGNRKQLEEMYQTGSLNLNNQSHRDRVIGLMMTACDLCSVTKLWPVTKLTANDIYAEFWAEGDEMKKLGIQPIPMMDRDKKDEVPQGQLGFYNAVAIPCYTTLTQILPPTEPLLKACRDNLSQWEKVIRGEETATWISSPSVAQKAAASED

| melting point [°C] | inhibition at 0.1 µM (human PDE10A enzyme) [%] | IC50 (human PDE10A enzyme) [nM] | Compound |
| --- | --- | --- | --- |
| 185 to 187 |  |  | COc1cn(-c2ccc(-n3cccn3)cc2F)nc(-c2ccnn2CC(F)(F)F)c1=O [Example 6, 1-[2-fluoro-4-(1H-pyrazol-1-yl)phenyl]-5-methoxy-3-[1-(2,2,2-trifluoroethyl)-1H-pyrazol-5-yl]pyridazin-4(1H)-one] |
| 241 to 243 |  |  | COc1cn(-c2ccc(-n3cc(F)c(F)c3)cc2O)nc(-c2ccnn2-c2ccccc2)c1=O [Example 11, 1-[4-(3,4-difluoro-1H-pyrrol-1-yl)-2-hydroxyphenyl]-5-methoxy-3-(1-phenyl-1H-pyrazol-5-yl)pyridazin-4(1H)-one] |
|  | 101 | ≤ 10 | COc1nc(N2CC(F)(F)C(F)(F)C2)ccc1-n1cc(OC)c(=O)c(-c2ccnn2-c2ccccc2)n1 [Example 52, 5-methoxy-1-[2-methoxy-6-(3,3,4,4-tetrafluoropyrrolidin-1-yl)pyridin-3-yl]-3-(1-phenyl-1H-pyrazol-5-yl)pyridazin-4(1H)-one] |
|  | 97 | ≤ 10 | COc1nc(-n2cc(F)c(F)c2)ccc1-n1cc(OC)c(=O)c(-c2ccnn2-c2ccccc2)n1 [Example 53, 1-[6-(3,4-difluoro-1H-pyrrol-1-yl)-2-methoxypyridin-3-yl]-5-methoxy-3-(1-phenyl-1H-pyrazol-5-yl)pyridazin-4(1H)-one] |
|  | 101 | ≤ 10 | COc1cn(-c2cnn(CC3(C)CC3)c2)nc(-c2ccnn2-c2ccccc2)c1=O [Example 54, 5-methoxy-1-{1-[(1-methylcyclopropyl)methyl]-1H-pyrazol-4-yl}-3-(1-phenyl-1H-pyrazol-5-yl)pyridazin-4(1H)-one] |
